{
  "source": "patent US20040014024A1",
  "about": "“Screening assay for antagonists of FGFR-mediated malignant cell transformation and tumor formation” (priority 1999, published 2004)",
  "test_system": "RCJ cells",
  "test": "Tumor formation in nude mice injected with RCJ cells, doxycycline in drinking water",
  "assay_type": "in vivo",
  "settings": "doxycycline 25 μg/ml in drinking water, up to 60 days",
  "protocol": "6-8-Week old nude mice (BalbC/Nu) were injected subcutaneously with equivalent number of parental RCJ or L8 cells or FGFR3 expressing cell lines and were followed for tumor formation for up to 60 days after injections. Inhibition of FGFR expression in vivo was done by adding 25 μg/ml doxycycline into the drinking water of mice which had previously received the RCJ cell clones by injection. Nude mice were injected subcutaneously with equivalent numbers of parental RCJ cells (FIGS. 9 A-C, C2, squares) or wild type or mutant FGFR3 expressing RCJ cell lines (W11, circles in FIG. 9A, M15, triangles in FIG. 9A, W2, triangles in FIG. 9B, M16, circles in FIG. 9B) and tumor surface areas were evaluated for up to 60 days after injection (ordinates). […] Triangles, C2 (control) clone plus doxycycline, circles, W11 clone, filled squares, W11 clone plus doxycycline Doxycycline was used in animals because the former is a potent high affinity derivative of tetracycline. […] The inhibition of tumor formation of RCJ cells was highly correlated with the expression levels of FGFR3. In order to determine whether inhibition of tumor formation reflects the expression level of FGFR3, we have performed an assay where we tried to suppress the expression of FGFR3 in vivo by the addition of doxycycline to the drinking water of injected mice.",
  "data": [
    {"compound": "C[C@H]1c2cccc(O)c2C(=O)C2=C(O)[C@]3(O)C(=O)C(C(N)=O)=C(O)[C@@H](N(C)C)[C@@H]3[C@@H](O)[C@@H]21", "note": "[doxycycline]", "values": [
      {"measurement": "effect on tumor formation, mice injected with the parental RCJ line (C2)", "result": "no significant effect"}
    ]}
  ]
}
